Laboratory results: patent publication US20200254020A1, “Methods and Compositions for Modulating the WNT-Signaling Pathway as Treatments for Inflammatory Diseases” (UNIVERSITY OF SOUTH CAROLINA, priority 2019, published 2020)

Experiments:
Type in all cases: cell-based, human
WNT10B = test: Micro-RNA mimic assay: transfection of THP1 cells, WNT10B mRNA (qRT-PCR) and protein (western blot); settings: 5 pmol per well mimic
Description: THP1 cells obtained from ATCC were cultured in complete RPMI medium containing 10% FBS, penicillin, and streptomycin, HEPES buffer and 2-mercaptoethanol. The incubation condition was at 37° C. and 5% CO2.
To investigate whether hsa-miR-7113-5p regulated expression of WNT10B, miRNA mimic transfection studies were performed in THP1 cells. Mimics and inhibitors of the miRNA were obtained from Qiagen Inc. and transfected into the cells by employing Lipofectamine RNAiMAX (Invitrogen, ThermoFisher Scientific, USA). One day prior to transfection, 2×10^5 THP1 cells were plated in a 24-well plate in 5001l complete RPMI medium. Mimic, inhibitor, and scrambled oligos were then added at an amount of 5 pmol per well. Cells were cultured for the indicated time after transfection and harvested for RNA and protein isolation. RNA samples were used for qRT-PCR based quantification of mRNAs and miRNAs. Whole-cell lysates were used for western blot analysis of miRNA target protein.
For the Western blot, anti-human-WNT10B was purchased from SIGMA-ALDRICH (cat # PRS4619). […] The total protein was not pre-quantified for loading onto the SDS-PAGE as the protein amount was to be normalized using an internal control. […] Protein bands were detected in a LI-COR blot detection system (Li-Cor Inc, Nebraska, USA).

WNT signaling pathway = test: Blocking WNT signaling with IWR-1 in PMA-activated PBMCs, IFNγ expression; settings: 10 μM IWR-1, 200 nM PMA
Description: To investigate whether WNT10B was directly responsible for the upregulation of IFNγ expression, the WNT signaling pathway was blocked using an inhibitor of WNT response-1 (IWR-1, Sigma-Aldrich, St. Louis, Mo., cat # I0161). IWR-1 inhibits WNT signaling by stabilizing AXIN1 and prevents its degradation. AXIN1 is an inhibitor of WNT signaling pathway30. PBMCs (2×106) from healthy controls were cultured overnight (˜18 hours) with 10 LM of IWR-1 in separate wells of a 96-well culture plate in 200 μl complete RPMI medium. The following day, PMA and IWR-1 (in a 10 μl volume) were added to the culture to reach a final concentration of 200 nM PMA and 10 μM IWR-1, respectively. After 6 hours, WNT10B was added to the designated wells. Cells were harvested after 24 and 48 hours of adding WNT10B for total RNA extraction. Culture supernatant was collected for ELISA. ELISA for human IFNγ was performed on culture supernatants. The kit for ELISA was purchased from BioLegend Inc. (CA, USA) and assay was performed following the manufacturer's instructions. Reading for OD was performed in a Victor2TM, 1420 Multilabel Counter (Perkin Elmer, USA) plate reader.

PBMCs = test: WNT10B signaling pathway initiation: rh-WNT10B added to PBMC cultures, proinflammatory gene expression and IFNγ ELISA; settings: for expression of IFNγ at mRNA level / expression of Tbx-21 at mRNA level: vs un-activated PBMCs or PMA activated PBMCs without rh-WNT10B
Description: To analyze whether WNT 10B could influence the expression of proinflammatory genes, WNT signaling was initiated by adding recombinant human (rh)-WNT10B in PBMCs cultures. The PBMCs were isolated from healthy human individuals. Two million cells were cultured in 200 μl medium in a 96-well tissue culture plates as follows: First, the PBMCs were stimulated with Phorbol 12-myristate 13-acetate (PMA) (200 nM) for 6 hours following which, 200 ng/ml rh-WNT10B was added. Then, the PBMCs were harvested after 24 and 48 hours and used for RNA and whole cell lysate (WCL) extraction for further analysis. The culture supernatants were also collected for ELISA to detect IFNγ. The following combinations were used as controls: 1) PBMCs+PMA without WNT10B and 2) PBMCs+WNT10B without PMA.
Before activation of cells and to see whether pre-exposure of cells to WNT10B can influence inflammatory gene expression, WNT10B (200 ng/ml) was first added in all the culture with PBMCs. After 24 hours, PMA (200 nM) was added to activate the cells. The following condition was used for the control: PBMCs+WNT10B without PMA. The cells were then harvested 24 hours after addition of PMA.
To test if chronic presence of WNT 10B alone (without stimulation with PMA) can lead to increased expression of inflammatory genes in the PBMCs, PBMCs (2×10^6 cells/well, in 200 μl, in a 96-well plate) were cultured with rh-WNT10B (200 ng/ml) for 96 hours. Additional rh-WNT10B was added after every 24 hours of culture. Cells were harvested every 24 hours for RNA and whole-cell lysate isolation. Supernatants were also collected for performing ELISA.
ELISA for human IFNγ was performed on culture supernatants. The kit for ELISA was purchased from BioLegend Inc. (CA, USA) and assay was performed following the manufacturer's instructions. Reading for OD was performed in a Victor2TM, 1420 Multilabel Counter (Perkin Elmer, USA) plate reader.

[1] = PMA (200 nM) activated PBMCs, 200 ng/ml rh-WNT10B, 24 hours
[2] = PMA (200 nM) activated PBMCs, 200 ng/ml rh-WNT10B, 48 hours

mimics of hsa-miR-7113-5p: Mimic of miRNA hsa-miR-7113-5p (UCCAGGGAGACAGUGUGUGAG, SEQ ID NO: 2) obtained from Qiagen Inc. (listed as RNA, chemistry not given here; listed as Homo sapiens)
level of WNT10B mRNA (WNT10B; qRT-PCR, compared to scrambled miRNA and miRNA-7113-5p-inhibitor treated groups): Significant reduction
level of WNT10B protein (WNT10B; western blot of whole-cell lysate after 72 hours, compared to scrambled miRNA and inhibitor groups): Significant reduction

O=C(Nc1cccc2cccnc12)c1ccc(N2C(=O)C3C(C2=O)[C@H]2C=C[C@@H]3C2)cc1 (stereo partly shown) [IWR-1, 4-(1,3,3a,4,7,7a-Hexahydro-1,3-dioxo-4,7-methano-2H-isoindol-2-yl)-N-8-quinolinyl-benzamide]
expression of IFNγ and other proinflammatory genes upon addition of WNT10B (WNT signaling pathway; WNT10B added after 6 hours): did not lead to increased expression
expression of IFNγ (WNT signaling pathway; compared to cells activated with PMA only): significantly downregulated

rh-WNT10B: recombinant human (rh)-WNT10B added to PBMC cultures to initiate WNT signaling
protein level of IFNγ (PBMCs; PMA (200 nM) activated PBMCs, 200 ng/ml rh-WNT10B, 24 hours, ELISA on culture supernatant): significant increase
expression of IFNγ at mRNA level (PBMCs; [1]): significant increase
expression of Tbx-21 at mRNA level (PBMCs; [1]): significant increase
expression of IFNγ at mRNA level (PBMCs; [2]): significant increase
expression of Tbx-21 at mRNA level (PBMCs; [2]): significant increase
induction of inflammatory genes, including STAT3, STAT4, or IFNγ (PBMCs; rh-WNT10B (200 and 500 ng/ml) alone added to naïve PBMCs, without PMA): did not induce any inflammatory genes
